The conditions of series [1]: cited from earlier work.
Series [2] has as its system neonatal cardiac fibroblasts. Put plainly: qPCR of cardiac and pluripotency gene expression in neonatal cardiac fibroblasts (with or without miR combo transfection). The format is cell-based, Mouse (C57BL/6). On the procedure:
Mouse (C57BL/6) neonatal cardiac fibroblasts or tail tip fibroblasts were isolated from 2 day old mouse neonates according to known methods e.g., outlined in Jayawardena et al [Jayawardena T, Mirotsou M, Dzau V J. Direct reprogramming of cardiac fibroblasts to cardiomyocytes using microRNAs. Methods in molecular biology. 2014; 1150:263-272]. Cells were cultured in growth media containing DMEM (ATCC) supplemented with 15% v/v FBS and 1% v/v penicillin/streptomycin. Cells were used at passage 1 or passage 2.
Cells were seeded at 5000 cells/cm^2 in growth media. Twenty-four hours later growth media was replaced with chemically defined reprogramming media (Advanced DMEM/F12, 0.2% w/v BSA, 250 μM Ascorbic Acid, 1× Insulin-Transferrin-Selenium, 1× L-Glutamine, 1× Penicillin-Streptomycin). Fresh media was added every two days.
Fibroblasts were seeded into a 24 well-plate at 9,000 cells/well. […]
The GM comprises the following: DMEM (ATCC#30-2002), 15% v/v embryonic stem cell qualified fetal bovine serum, and 1× penicillin/streptomycin. […] Differentiation was assessed by qPCR, immunocytochemistry, and flow cytometry.
A general note: Real-time PCR tracks product formation cycle by cycle.

The conditions of series [3]: during controlled therapy; cited from earlier work.

This is an account of results in US20200009197A1, “COMPOSITIONS AND METHODS FOR THE REPROGRAMMING OF CELLS INTO CARDIOMYOCYTES” (Duke University, priority 2014, published 2020).

Turning to `O=C(O)C(Cc1c[nH]c2ccccc12)N1C(=O)c2ccccc2C1=O` (stereo not drawn) [RG108, 2-(1,3-Dioxo-1,3-dihydro-2H-isoindol-2-yl)-3-(1H-indol-3-yl)propionic acid], in series [1] (DMSO), the “soluble to, in DMSO” value is 100 mM. Moreover, the “soluble to, in ethanol” value in series [1] is reported as 100 mM.

As for `COC(=O)C1=C(C)NC(C)=C([N+](=O)[O-])[C@@H]1c1ccccc1C(F)(F)F` [R(+)Bay K 8644, R-(+)-1,4-Dihydro-2,6-dimethyl-5-nitro-4-[2-(trifluoromethyl)phenyl]-3-pyridinecarboxylic acid methyl ester], the “soluble to, in DMSO” value in series [1] (DMSO) was 100 mM. Further, the “soluble to, in ethanol” value in series [1] is given as 100 mM. Take `Cc1cccc(-c2nn(C(=S)Nc3ccccc3)cc2-c2ccnc3ccccc23)n1` [A83-01, 3-(6-Methyl-2-pyridinyl)-N-phenyl-4-(4-quinolinyl)-1H-pyrazole-1-c arbothioamide]: in series [1] (DMSO), the “soluble to, in DMSO” value is 100 mM. As for `O=C1O[C@H]([C@@H](O)CO)C(O)=C1O` [ascorbic acid], in series [2] (added to growth media), the “effects of miR-combo upon cardiac gene expression” value is listed as “augmented”. Also, the “additive effect on cardiac gene expression at gene and protein level” value in series [2] (increasing concentration) is given as “increased the additive effect”. For the compound `CCCC(CCC)C(=O)O` [Valproic acid, 2-propylpentanoic acid], the “serum or plasma concentrations” value in series [3] was 20 to 100 mg/L. Regarding `O=C(O)C=C(CCc1ccc(Cl)cc1)c1ccccc1` [PS48, 5-(4-Chloro-phenyl)-3-phenyl-pent-2-enoic acid], in series [1] (DMSO), the “solubility in DMSO” value is “soluble in DMSO”.
